From patent publication US11376308B2, “Use of FKBP-L polypeptides and nucleic acids for the treatment of obesity” (The Queen's University of Belfast, priority 2016, dated 2022)
“Also recorded” adds a separate entry of the source.

Columns and labels:
[1] = system: TIMP1; assay: Ray Biotech cytokine array on spent medium of MDA231 cells, validated by ELISA: TIMP1; assay type: cell-based; details: spent medium of MDA231 cells after exposure to ALM201
Description: (§1) FIGS. 7A and 7B illustrate the level of secretion of leptin, IL8 and TIMP Secretion after treatment with FKBP-L's therapeutic peptide, ALM201—A Ray Biotech cytokine array was used to measure cytokines in the spent medium of MDA231 cells after exposure to ALM201. Blots were then quantitated by densitometric analysis using Ray Biotech software.
(§2) A Ray Biotech cytokine array was used to measure cytokines in the spent medium of MDA231 cells after exposure to ALM201. Blots were then quantitated by densitometric analysis using Ray Biotech software. IL8 and TIMP1 levels were then validated by ELISA in two or three independent repeats. A reduction in these cytokines would reduce the obesity phenotype.

[2] = system: IL-8; assay: Ray Biotech cytokine array on spent medium of MDA231 cells, validated by ELISA: IL-8; assay type: cell-based; details: spent medium of MDA231 cells after exposure to ALM201
Description: as §1, §2

[3] = High fat diet weight gain study in Fkbpl+/- and Fkbpl+/+ mice, ALM201 vs PBS; assay type: in vivo; details: ALM201 0.3 mg/kg subcutaneously 5 days per week
Description: (§3) For the high fat diet study, 40 age and sex matched mice were chosen with an age range of 6-10 weeks at the experimental start date. Mice were randomised into four groups: PBS Fkbpl^+/−, PBS Fkbpl^+/+, ALM201 Fkbpl^+/− and ALM201 Fkbpl^+/+. Power calculations were utilised to predict the number of mice needed to show statistical significance. Taking group 1 mean weight to be 25 g and group 2 mean weight to be 45 g, with a standard deviation of 13 gives a sample size of eight mice per group when powered to 0.8, with α=0.05. 10 mice per treatment group were used. All mice were weighed at experimental start date, biweekly for the first three weeks to ensure health, and weekly thereafter. Mice were solely fed a high fat diet comprising 60% fat (Cat no. F3282, Dates and, USA). Food provided was weighed biweekly for three weeks, then weekly, to ensure equal food provisions between boxes, with an allowance of 5 g per mouse per day assumed. ALM201 was reconstituted in PBS, stored at −20° C., and injected subcutaneously at a dose of 0.3 mg/kg, 5 days per week.

[4] = system: leptin; assay: Ray Biotech cytokine array on spent medium of MDA231 cells: leptin; assay type: cell-based; details: spent medium of MDA231 cells after exposure to ALM201
Description: as §1, §2

[5] = system: SIRT1; assay: SIRT1 protein levels following ALM201 treatment (western blot); assay type: cell-based; details: FIG. 6D
Description: For assessing protein levels: Cell lysates were prepared in RIPA buffer from MDA-MB-231, A3, MCF-7 and D2 cells and subjected to Western Blotting. The membrane was then probed with a 1:1000 dilution of rabbit FKBP-L IgG polyclonal primary antibody (Proteintech UK, cat: 10060-1-AP), 1:1000 rabbit SIRT1 IgG monoclonal primary antibody (Abcam, UK cat: ab32441) in 3% blocking solution overnight on a rocker at 4° C. The membrane was washed with PBS-Tween and then PBS for 5 min each, and was probed for an hour with a 1:5000 dilution of ECL anti rabbit IgG HRP linked whole secondary antibody (GE Healthcare UK Ltd.) Membranes were washed and developed as in section 2.2.2.11.3. Membranes were then stripped with Restore™ Western Blot Stripping Buffer (Thermo Scientific) for 10 min, washed, re-probed with rabbit GAPDH primary antibody (Sigma-Aldrich), and a 1:5000 dilution of ECL anti rabbit IgG HRP linked whole secondary antibody (GE Healthcare UK Ltd.) and developed as above. SIRT1 was identified as a band around 110 kDa, FKBP-L at 42 kDa.

[6] = Oral Glucose Tolerance Test (OGTT) in high fat diet fed mice given ALM201; assay type: in vivo
Description: An OGTT was performed by fasting the mice for 4 h, taking baseline blood glucose, administering 40% D-glucose, and recording two further blood glucose readings at 30 and 60 min.
as §3

[7] = system: IL-1β; assay: LPS-induced IL-1β secretion in THP-1 monocytes (ELISA); assay type: cell-based; details: 1000 ng/ml LPS, conditioned medium 24 h later
Description: FIG. 13 illustrates the FKBP-L peptide, AD-01, abrogates LPS-induced activation of IL-1β in THP-1 monocytes—Cells were stimulated with 1000 ng of LPS.
(§4) THP1 cells were treated with 100 ng/ml LPS and cell lysates harvested and subjected to western blotting as described in Example 4, using primary antibody against pSER36 NFkB (at a 1:1000 dilution) and a 1:5000 dilution of ECL anti rabbit IgG HRP linked whole secondary antibody (GE Healthcare UK Ltd.). To measure IL-1β levels THP1 cells were treated with 1000 ng/ml LPS±AD-01 and conditioned cell culture medium was collected 24 h later and assessed using an IL-1β ELISA.

[8] = system: NFkB; assay: LPS-induced NFkB phosphorylation in THP-1 monocytes (western blot); assay type: cell-based; details: 100 ng/ml LPS, lysates 6 hour after treatment
Description: FIG. 12 illustrates the FKBP-L peptide, AD-01 (SEQ ID NO: 10), abrogates LPS-induced activation of NFkB in THP-1 monocytes—Cells were stimulated with 100 ng of LPS which results in activation of NFkB phosphorylation.
as §4

| Substance | secreted TIMP1 levels [1] | secreted IL-8 levels [2] | weight gain ([3]; Fkbpl+/- mice, 0.3 mg/kg) | weight gain ([3]; wild-type (Fkbpl+/+) mice) | secreted leptin levels [4] | SIRT1 protein levels [5] | blood glucose / glucose intolerance (OGTT) ([6]; Fkbpl+/- mice given ALM201 vs Fkbpl+/- mice given PBS, readings at 30 and 60 min after 40% glucose) | difference in blood glucose levels between Fkbpl+/- and Fkbpl+/+ mice (OGTT) ([6]; both genotypes administered ALM201) | LPS-induced IL-1β secretion [7] | LPS-induced activation of NFkB (phosphorylation) [8] |
| --- | --- | --- | --- | --- | --- | --- | --- | --- | --- | --- |
| NH2-IRQQPRDPPTETLELEVSPDPAS-OH (H-IRQQPRDPPTETLELEVSPDPAS-OH) [ALM201] | reduce | reduce | significantly reduced; also recorded: normalises the mouse weight gain; also recorded: reduces and normalises weight gain | partially prevented weight gain | reduce | increased SIRT1 levels | significantly reduced; also recorded: significantly lower blood glucose readings | no significant difference | – | – |
| NH2-QIRQQPRDPPTETLELEVSPDPAS-OH (H-QIRQQPRDPPTETLELEVSPDPAS-OH) [AD-01] | – | – | – | – | – | – | – | – | dramatic reduction; also recorded: significantly abrogated | inhibit; also recorded: abrogated that increase |
